Measured values: patent publication US20040110802A1, “Antibacterial benzoic acid derivatives” (priority 2002, published 2004)
≈ marks a conversion by molar mass, not a printed value.

tested on: SAUR 9218; assay: MIC Test Method, standard agar dilution; type: cell-based; conditions: agar dilution, Mueller Hinton agar, incubated overnight at 35° C.; lowest concentration that inhibits visible growth; read-out: SAUR 9218 MIC
Method in brief: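 MIC (μg/ml) was read as the lowest drug level without visible growth of SAUR 9218 after overnight incubation at 35 °C. Inocula of about 10^4 to 10^5 cells per spot were applied to Mueller Hinton agar containing 2-fold serial compound dilutions.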

Structure (SMILES) | MIC
Cn1c(C(=O)Nc2ccc(C#N)cc2C(=O)O)cc2cccc(NC(=O)NCC3CCCO3)c21 (centres unmarked) | 1 µg/mL (≈ 2.17 µM)
N#Cc1ccc(NC(=O)c2cc3cccc(NC(=O)CCC4CCCC4)c3[nH]2)c(C(=O)O)c1 | 0.25 µg/mL (≈ 0.562 µM)
CON=C1CCn2c(C(=O)Nc3ccc(C#N)cc3C(=O)O)cc3cccc1c32 | 1 µg/mL (≈ 2.57 µM)
COCCn1c(C(=O)Nc2ccc(Cl)cc2C(=O)O)cc2ccccc21 | 16 µg/mL (≈ 42.9 µM)
C=CCN(C1CCCC1)S(=O)(=O)c1cc(C(=O)Nc2ccc(C#N)cc2C(=O)O)sc1C | 8 µg/mL (≈ 16.9 µM)
N#Cc1ccc(NC(=O)c2cc3cccc(NC(=O)c4ccccc4CCc4ccccc4)c3[nH]2)c(C(=O)O)c1 | 0.5 µg/mL (≈ 0.946 µM)
CNC(=O)Nc1ccc2cc(C(=O)Nc3ccc(C#N)cc3C(=O)O)n(C)c2c1 | 2 µg/mL (≈ 5.11 µM)
CCC1CCCCN1S(=O)(=O)c1cc(C(=O)Nc2ccc(C#N)cc2C(=O)O)sc1C (centres unmarked) | 2 µg/mL (≈ 4.33 µM)
Cn1c(C(=O)Nc2ccc(C#N)cc2C(=O)O)cc2c(Br)ccc(N)c21 | 1 µg/mL (≈ 2.42 µM)
NS(=O)(=O)c1ccc2onc(C(=O)Nc3ccc(Br)cc3C(=O)O)c2c1 | 0.25 µg/mL (≈ 0.568 µM)
Cc1cccc(CC(=O)Nc2cccc3cc(C(=O)Nc4ccc(C#N)cc4C(=O)O)[nH]c23)c1 | 0.125 µg/mL (≈ 0.276 µM)
O=C(O)c1cc(Br)ccc1NC(=O)c1cc2ccccc2n1CCCc1ccccc1 | 4 µg/mL (≈ 8.38 µM)
Cc1ccsc1-c1cc(C(=O)Nc2ccc(C#N)cc2C(=O)O)no1 | 0.125 µg/mL (≈ 0.354 µM)
Cn1c(C(=O)Nc2ccc(C#N)cc2C(=O)O)cc2cccc(OCC(O)CCl)c21 (centres unmarked) | 0.25 µg/mL (≈ 0.584 µM)
CCCCCCSc1cnc(C(=O)Nc2ccc(Br)cc2C(=O)O)cn1 | 0.5 µg/mL (≈ 1.14 µM)
Cc1ccsc1C(=O)Nc1ccc(Br)cc1C(=O)O | > 128 µg/mL
CCCCCCSc1cnc(C(=O)Nc2ccc(C#N)cc2C(=O)O)nc1 | 2 µg/mL (≈ 5.2 µM)
CCCCCCCCCSc1ccc(C(=O)Nc2ccc(C#N)cc2C(=O)O)cn1 | 1 µg/mL (≈ 2.35 µM)
CCCOc1ccccc1C(=O)Nc1cccc2cc(C(=O)Nc3ccc(C#N)cc3C(=O)O)[nH]c12 | 1 µg/mL (≈ 2.07 µM)
Cc1noc(C)c1C#Cc1cncc(C(=O)Nc2ccc(C#N)cc2C(=O)O)c1 | 16 µg/mL (≈ 41.4 µM)
Cn1c(C(=O)Nc2ccc(C#N)cc2C(=O)O)cc2cccc(OCC3CCC3)c21 | 0.125 µg/mL (≈ 0.31 µM)
COCOCC(OCOC)C(Cc1cnc(C(=O)Nc2ccc(Br)cc2C(=O)O)cn1)OC (centres unmarked) | > 128 µg/mL
O=C(O)c1cc(Cl)ccc1/C=C/c1cc(-c2ccccc2)on1 | 32 µg/mL (≈ 98.2 µM)

Structure (SMILES) | MIC
C[C@@H]1CCCC1Oc1ccccc1-c1cc(C(=O)Nc2ccc(C#N)cc2C(=O)O)no1 (some centres unmarked) | 0.125 µg/mL (≈ 0.29 µM)
O=C(Nc1ccc(Br)cc1C(=O)O)c1cccs1 | > 128 µg/mL
O=C(O)c1cc(Br)ccc1NC(=O)c1ccnc2ccccc12 | > 128 µg/mL
Cc1c(C(=O)Nc2ccc(Br)cc2C(=O)O)noc1-c1ccccc1 | 0.5 µg/mL (≈ 1.25 µM)
N#Cc1ccc(NC(=O)c2cc(CN(CCO)CCO)on2)c(C(=O)O)c1 | 8 µg/mL (≈ 21.4 µM)
CCCCCOc1cccc2cc(C(=O)Nc3ccc(C#N)cc3C(=O)O)n(C)c12 | 0.125 µg/mL (≈ 0.308 µM)
N#Cc1ccc(NC(=O)c2cc3cccc4c3n2CCC4=O)c(C(=O)O)c1 | 1 µg/mL (≈ 2.78 µM)
Cc1sc(C(=O)Nc2ccc(C#N)cc2C(=O)O)cc1S(=O)(=O)N1CCN(c2ccccc2)CC1 | 8 µg/mL (≈ 15.7 µM)
N#Cc1ccc(NC(=O)c2noc3cc(-c4ccccc4C(F)(F)F)ccc23)c(C(=O)O)c1 | 0.125 µg/mL (≈ 0.277 µM)
N#Cc1ccc(NC(=O)c2cc3cccc(NC(=O)c4ccc(Br)cc4)c3[nH]2)c(C(=O)O)c1 | 0.25 µg/mL (≈ 0.497 µM)
O=C(Nc1ccc(Br)cc1C(=O)O)c1cnc(Cl)c(Cl)c1 | 4 µg/mL (≈ 10.3 µM)
O=C(O)c1cc(Br)ccc1NC(=O)c1cccc2c1CCN(Cc1ccccc1)S2(=O)=O | 8 µg/mL (≈ 15.5 µM)
CC(C)N(c1ccc2onc(C(=O)Nc3ccc(C#N)cc3C(=O)O)c2c1)S(C)(=O)=O | 0.125 µg/mL (≈ 0.283 µM)
Cc1c(S(=O)(=O)N2CCN(c3cccc(C(F)(F)F)c3)CC2)csc1C(=O)Nc1ccc(Br)cc1C(=O)O | 16 µg/mL (≈ 25.3 µM)
N#Cc1ccc(NC(=O)c2nsc(Cl)c2Cl)c(C(=O)O)c1 | 4 µg/mL (≈ 11.7 µM)
CCC(=O)Nc1cccc2cc(C(=O)Nc3ccc(C#N)cc3C(=O)O)[nH]c12 | 2 µg/mL (≈ 5.31 µM)
CCCCCn1c(C(=O)Nc2ccc(Br)cc2C(=O)O)cc2ccccc21 | 2 µg/mL (≈ 4.66 µM)
Cn1c(C(=O)Nc2ccc(C#N)cc2C(=O)O)cc2cccc(OC3CCC3)c21 | 0.125 µg/mL (≈ 0.321 µM)
CC(=O)Oc1ccc(N2C(=O)c3ccc(C(=O)Nc4ccc(Br)cc4C(=O)O)cc3C2=O)cc1 | 64 µg/mL (≈ 122 µM)
O=C(Nc1ccc(Br)cc1C(=O)O)c1cnc(/C=C/C2COC3(CCCCC3)O2)cn1 (centres unmarked) | 8 µg/mL (≈ 16.4 µM)
N#Cc1ccc(NC(=O)c2noc3cc(-c4cccc(CO)c4)ccc23)c(C(=O)O)c1 | 0.125 µg/mL (≈ 0.302 µM)
CCOc1ccc(CC(=O)Nc2cccc3cc(C(=O)Nc4ccc(C#N)cc4C(=O)O)[nH]c23)cc1 | 0.5 µg/mL (≈ 1.04 µM)
N#Cc1ccc(/C=C/c2noc3ccccc23)c(C(=O)O)c1 | 64 µg/mL (≈ 220 µM)

Structure (SMILES) | MIC
O=C(Nc1ccc(Cl)cc1C(=O)O)c1cc(-c2ccccc2Cl)on1 | 0.5 µg/mL (≈ 1.33 µM)
Cc1sc(C(=O)Nc2ccc(C#N)cc2C(=O)O)cc1S(=O)(=O)N1CCCC2CCCCC21 (centres unmarked) | 32 µg/mL (≈ 65.6 µM)
O=C(O)c1cc(Br)ccc1NC(=O)c1cc(OCc2ccccc2)cc[n+]1[O-] | 32 µg/mL (≈ 72.2 µM)
COc1ccc(-c2cc(C(=O)Nc3ccc(C#N)cc3C(=O)O)no2)cc1 | 0.5 µg/mL (≈ 1.38 µM)
COCC(=O)Nc1ccc2onc(C(=O)Nc3ccc(C#N)cc3C(=O)O)c2c1 | 4 µg/mL (≈ 10.1 µM)
Cc1ccccc1-c1ccc2c(C(=O)Nc3ccc(C#N)cc3C(=O)O)noc2c1 | 0.06 µg/mL (≈ 0.151 µM)
CS(=O)(=O)c1ccccc1C(=O)Nc1cccc2cc(C(=O)Nc3ccc(C#N)cc3C(=O)O)[nH]c12 | 4 µg/mL (≈ 7.96 µM)
N#Cc1ccc(NC(=O)c2cc3cccc(NC(=O)C4CCCN4)c3[nH]2)c(C(=O)O)c1 (centres unmarked) | > 128 µg/mL
N#Cc1ccc(NC(=O)c2noc3ccc(NS(=O)(=O)c4ccc(F)cc4)cc23)c(C(=O)O)c1 | 0.125 µg/mL (≈ 0.26 µM)
N#Cc1ccc(NC(=O)c2cc3cccc(NC(=O)C4CC4)c3[nH]2)c(C(=O)O)c1 | 1 µg/mL (≈ 2.57 µM)
O=C(Nc1ccc(Br)cc1C(=O)O)c1ncc(-c2ccco2)o1 | 2 µg/mL (≈ 5.3 µM)
CCCCOc1ccc2cc(C(=O)Nc3ccc(C#N)cc3C(=O)O)n(C)c2c1 | 16 µg/mL (≈ 40.9 µM)
O=C(Nc1ccc(O)cc1C(=O)O)c1cc(-c2ccccc2-c2ccccc2)on1 | 0.125 µg/mL (≈ 0.312 µM)
CC(CC(=O)Nc1cccc2cc(C(=O)Nc3ccc(C#N)cc3C(=O)O)[nH]c12)CC(C)(C)C (centres unmarked) | 0.5 µg/mL (≈ 1.09 µM)
N#Cc1ccc(NC(=O)c2cc3cccc(NC(=O)c4ccccc4)c3[nH]2)c(C(=O)O)c1 | 2 µg/mL (≈ 4.71 µM)
N#Cc1ccc(NC(=O)c2cc3cccc(N)c3[nH]2)c(C(=O)O)c1 | 1 µg/mL (≈ 3.12 µM)
O=C(Nc1ccc(I)cc1C(=O)O)c1cnc(Cl)cn1 | 128 µg/mL (≈ 317 µM)
O=C(Nc1ccc(Br)cc1C(=O)O)c1cc(-c2ccccc2F)on1 | 0.5 µg/mL (≈ 1.23 µM)
CCCCNCC(O)COc1cccc2cc(C(=O)Nc3ccc(C#N)cc3C(=O)O)n(C)c12.Cl (centres unmarked) | 0.5 µg/mL
CCOC(=O)CC(=O)Nc1cccc2cc(C(=O)Nc3ccc(C#N)cc3C(=O)O)[nH]c12 | 0.5 µg/mL (≈ 1.15 µM)
CCCCCNC(=O)Nc1ccc2cc(C(=O)Nc3ccc(C#N)cc3C(=O)O)n(C)c2c1 | 0.5 µg/mL (≈ 1.12 µM)
O=C(Nc1ccc(Br)cc1C(=O)O)c1ccc2c(c1)C(=O)N(CC1CCCO1)C2=O (centres unmarked) | 8 µg/mL (≈ 16.9 µM)

Other lines, results leading:

MIC | Structure (SMILES)
4 µg/mL (≈ 11.1 µM) | CC(C)Cn1c(C(=O)Nc2ccc(C#N)cc2C(=O)O)cc2ccccc21
0.25 µg/mL (≈ 0.593 µM) | COCC(C)Oc1ccccc1-c1cc(C(=O)Nc2ccc(C#N)cc2C(=O)O)no1 (centres unmarked)
1 µg/mL (≈ 2.1 µM) | N#Cc1ccc(NC(=O)c2noc3cc(NS(=O)(=O)Cc4ccccc4)ccc23)c(C(=O)O)c1
1 µg/mL (≈ 2.4 µM) | COCCOCCCSc1cnc(C(=O)Nc2ccc(C#N)cc2C(=O)O)cn1
0.125 µg/mL (≈ 0.288 µM) | O=C(Nc1ccc(Br)cc1C(=O)O)c1cc(SCc2ccccc2)on1
0.125 µg/mL (≈ 0.299 µM) | N#Cc1ccc(NC(=O)c2cc(-c3ccccc3OCC3CCC3)on2)c(C(=O)O)c1
16 µg/mL (≈ 43 µM) | N#Cc1ccc(NC(=O)c2cnc(CCc3ccccc3)cn2)c(C(=O)O)c1
0.5 µg/mL (≈ 1.5 µM) | N#Cc1ccc(NC(=O)c2ncc(-c3ccccc3)o2)c(C(=O)O)c1
1 µg/mL (≈ 2.5 µM) | CCOC(=O)CCSc1ccc(C(=O)Nc2ccc(C#N)cc2C(=O)O)cn1
0.125 µg/mL (≈ 0.263 µM) | N#Cc1ccc(NC(=O)c2cc3cccc(NS(=O)(=O)Cc4ccccc4)c3[nH]2)c(C(=O)O)c1
16 µg/mL (≈ 37.2 µM) | Cn1nc(C(=O)Nc2ccc(Br)cc2C(=O)O)cc1OCc1ccccc1
2 µg/mL (≈ 4.69 µM) | CCCCCCCCCSc1cnc(C(=O)Nc2ccc(C#N)cc2C(=O)O)cn1
4 µg/mL (≈ 9.54 µM) | CCC(CC)Oc1ccccc1-c1cc(C(=O)Nc2ccc(C#N)cc2C(=O)O)no1
0.25 µg/mL (≈ 0.732 µM) | CC(C)Sc1ccc(C(=O)Nc2ccc(C#N)cc2C(=O)O)cn1
1 µg/mL (≈ 2.94 µM) | N#Cc1ccc(NC(=O)c2cc3cccc(Cl)c3[nH]2)c(C(=O)O)c1
0.5 µg/mL (≈ 1.5 µM) | N#Cc1ccc(NC(=O)c2cc(-c3ccccc3)no2)c(C(=O)O)c1

MIC | Structure (SMILES)
16 µg/mL (≈ 36 µM) | O=C(Nc1ccc(Br)cc1C(=O)O)c1cncc(SCc2ccccc2)n1
0.25 µg/mL (≈ 0.62 µM) | CC(Sc1ccc(C(=O)Nc2ccc(C#N)cc2C(=O)O)cn1)c1ccccc1 (centres unmarked)
0.5 µg/mL (≈ 1.08 µM) | N#Cc1ccc(NC(=O)c2cc3cccc4c3n2CC/C4=N\OCc2ccccc2)c(C(=O)O)c1
0.5 µg/mL (≈ 1.41 µM) | N#Cc1ccc(NC(=O)c2ccc(SCC3CC3)nc2)c(C(=O)O)c1
0.5 µg/mL (≈ 1.3 µM) | O=C(Nc1ccc(Cl)cc1C(=O)O)c1cc(CCCc2ccccc2)on1
0.015 µg/mL (≈ 0.0324 µM) | N#Cc1ccc(NC(=O)c2noc3ccc(S(=O)(=O)Nc4ccccc4)cc23)c(C(=O)O)c1
8 µg/mL (≈ 26.9 µM) | COc1ccc(C(=O)Nc2ccc(C#N)cc2C(=O)O)cn1
2 µg/mL (≈ 4.86 µM) | N#Cc1ccc(NC(=O)c2cncc(-c3ccccc3C(F)(F)F)c2)c(C(=O)O)c1
0.125 µg/mL (≈ 0.329 µM) | CCCCCSc1cnc(C(=O)Nc2ccc(Cl)cc2C(=O)O)cn1
0.125 µg/mL (≈ 0.325 µM) | CCCCCCSc1cnc(C(=O)Nc2ccc(C#N)cc2C(=O)O)cn1
32 µg/mL (≈ 88.5 µM) | CCCCn1c(C(=O)Nc2ccc(C#N)cc2C(=O)O)cc2ccccc21
0.125 µg/mL (≈ 0.32 µM) | N#Cc1ccc(NC(=O)c2cnc(SCc3ccccc3)cn2)c(C(=O)O)c1
64 µg/mL (≈ 126 µM) | Cc1sc(C(=O)Nc2ccc(C#N)cc2C(=O)O)cc1S(=O)(=O)N(CCC#N)Cc1ccccc1
> 128 µg/mL | N#Cc1ccc(NC(=O)c2ccco2)c(C(=O)O)c1
16 µg/mL (≈ 53 µM) | N#Cc1ccc(NC(=O)c2ccc(Cl)nc2)c(C(=O)O)c1
0.5 µg/mL (≈ 1.22 µM) | CCC(C)Sc1cnc(C(=O)Nc2ccc(Br)cc2C(=O)O)cn1 (centres unmarked)

same assay, conditions: read-out: SAUR 9218 MIC

Structure (SMILES) | MIC
N#Cc1ccc(NC(=O)c2cc3cccc(NC(=O)CF)c3[nH]2)c(C(=O)O)c1 | 2 µg/mL (≈ 5.26 µM)
